Assays:
Test in all cases: relative viability (nuclei count vs DMSO), 5 days (fraction); higher = more cells survive
[1] = compound: O=C(CCCCCCC(=O)Nc1ccccc1)NO [Vorinostat] + CS(=O)(=O)CCNCc1ccc(-c2ccc3ncnc(Nc4ccc(OCc5cccc(F)c5)c(Cl)c4)c3c2)o1 [Lapatinib] (partner 2 µM)
Summary of the method: (§1)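 Relative viability divides the nuclei count in treated wells by that in vehicle wells. Lung cancer cell lines were seeded in 1536-well plates, dosed by pin tool the next day, and fixed and stained after 5 days in one step with final 0.05% Triton X-100, 1% formaldehyde and 1 ug/ml Hoechst. Dosing was a single drug or a fixed anchor-drug dose plus five library-drug doses (not always all listed) in √10 steps, and values are medians of duplicate plates imaged at 4×.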

[2] = compound: O=C(CCCCCCC(=O)Nc1ccccc1)NO [Vorinostat] + C[C@@H](Oc1cc(-c2cnn(C3CCNCC3)c2)cnc1N)c1c(Cl)ccc(F)c1Cl [Crizotinib] (partner 1 µM)
Summary of the method: as §1

[3] = compound: O=C(CCCCCCC(=O)Nc1ccccc1)NO [Vorinostat] + CCNC(=O)c1noc(-c2cc(C(C)C)c(O)cc2O)c1-c1ccc(CN2CCOCC2)cc1 [Luminespib] (partner 0.01 µM)
Summary of the method: as §1

[4] = compound: O=C(CCCCCCC(=O)Nc1ccccc1)NO [Vorinostat]
Summary of the method: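 Lung cancer cell lines received five library-drug doses (not always all listed) spaced by √10, pinned on vehicle-anchored 1536-well plates after an overnight stay at 37 °C. Five days later, with no medium change, nuclei were Hoechst-stained, imaged at 4× and counted with MetaXpress. Viability is treated-well nuclei relative to vehicle-well nuclei, as a median across plates. Passing plates had control CV below 25% and at least one doubling.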

| Cell Line | relative viability ([1]; first compound 0.253 µM) | relative viability ([1]; first compound 0.8 µM) | relative viability ([1]; first compound 2.53 µM) | relative viability ([1]; first compound 8 µM) | relative viability ([2]; first compound 0.253 µM) | relative viability ([2]; first compound 0.8 µM) | relative viability ([2]; first compound 2.53 µM) | relative viability ([2]; first compound 8 µM) | relative viability ([3]; first compound 0.253 µM) | relative viability ([3]; first compound 0.8 µM) | relative viability ([3]; first compound 2.53 µM) | relative viability ([3]; first compound 8 µM) | relative viability ([4]; 0.253 µM) | relative viability ([4]; 0.8 µM) | relative viability ([4]; 1 µM, anchor plate) | relative viability ([4]; 2.53 µM) | relative viability ([4]; 8 µM) |
| --- | --- | --- | --- | --- | --- | --- | --- | --- | --- | --- | --- | --- | --- | --- | --- | --- | --- |
| CAL-12T | 0.682 | 0.649 | 0.438 | 0.111 | 0.901 | 0.443 | 0.207 | 0.0708 | 0.555 | 0.464 | 0.383 | 0.134 | 1.13 | 1.09 | 0.807 | 0.537 | 0.137 |
| NCI-H2087 | 1.23 | 0.962 | 0.352 | 0.178 | 0.838 | 0.727 | 0.236 | 0.177 | 0.226 | 0.148 | 0.157 | 0.127 | 1.03 | 0.634 | 0.737 | 0.246 | 0.0956 |
| NCI-H647 | 1.49 | 0.947 | 0.163 | 0.0687 | 1.15 | 0.591 | 0.178 | 0.0502 | 0.0999 | 0.146 | 0.222 | 0.0619 | 1.16 | 0.731 | 0.539 | 0.199 | 0.0541 |
| NCI-H1915 | 1.03 | 0.962 | 0.673 | 0.0743 | 0.985 | 0.847 | 0.248 | 0.0881 | 0.792 | 0.761 | 0.18 | 0.0892 | 1.12 | 0.878 | 0.524 | 0.514 | 0.123 |
| HCC-15 | 0.941 | 0.852 | 0.569 | 0.129 | 0.919 | 0.879 | 0.496 | 0.0884 | 0.526 | 0.565 | 0.361 | 0.148 | 1.16 | 0.909 | 0.885 | 0.655 | 0.145 |
| NCI-H1666 | 0.606 | 0.339 | 0.228 | 0.167 | 0.788 | 0.713 | 0.244 | 0.22 | 1.16 | 0.894 | 0.477 | 0.339 | 1.05 | 0.955 | 1.01 | 0.514 | 0.348 |
| UMC-11 | 1.05 | 0.238 | 0.137 | 0.0786 | 0.578 | 0.481 | 0.0587 | 0.0369 | 1.03 | 0.566 | 0.149 | 0.108 | 1.1 | 0.617 | 0.403 | 0.201 | 0.103 |
| PC-14 | 0.36 | 0.251 | 0.135 | 0.0961 | 0.888 | 0.865 | 0.215 | 0.0683 | 0.128 | 0.143 | 0.113 | 0.133 | 1.25 | 0.886 | 0.725 | 0.171 | 0.051 |
| NCI-H661 | 0.549 | 0.682 | 0.275 | 0.161 | 1.01 | 1.03 | 0.483 | 0.327 | 0.905 | 0.725 | 0.34 | 0.298 | 1.11 | 0.974 | 0.8 | 0.548 | 0.351 |
| RERF-LC-KJ | 0.938 | 0.781 | 0.733 | 0.227 | 0.813 | 0.744 | 0.448 | 0.156 | 1.22 | 0.883 | 0.308 | 0.278 | 1.04 | 0.911 | 0.698 | 0.405 | 0.246 |
| 201T | 1.05 | 0.954 | 0.929 | 0.567 | 1.12 | 1.03 | 1.02 | 0.317 | 1.1 | 1.09 | 0.82 | 0.281 | 1.07 | 0.848 | 0.946 | 0.855 | 0.324 |
| NCI-H2085 | 0.676 | 0.608 | 0.494 | 0.278 | 0.8 | 0.831 | 0.436 | 0.181 | 0.447 | 0.411 | 0.317 | 0.19 | 1.05 | 0.939 | 0.815 | 0.714 | 0.369 |
| H3255 | 0.24 | 0.17 | 0.141 | 0.101 | 1.02 | 0.817 | 0.411 | 0.225 | 0.743 | 0.808 | 0.602 | 0.315 | 1.02 | 1.13 | 0.791 | 0.573 | 0.286 |
| A-427 | 1.1 | 1.05 | 0.929 | 0.23 | 0.954 | 0.847 | 0.274 | 0.096 | 1.03 | 0.892 | 0.339 | 0.158 | 1.15 | 0.972 | 0.862 | 0.517 | 0.176 |
| NCI-H1944 | 0.77 | 0.572 | 0.43 | 0.236 | 0.965 | 0.631 | 0.292 | 0.125 | 0.716 | 0.573 | 0.304 | 0.147 | 0.927 | 0.707 | 0.57 | 0.341 | 0.21 |
| NCI-H358 | 0.642 | 0.566 | 0.276 | 0.199 | 0.526 | 0.393 | 0.133 | 0.134 | 0.429 | 0.521 | 0.308 | 0.126 | 1.33 | 1.05 | 0.697 | 0.255 | 0.118 |
| NCI-H520 | 1.12 | 0.668 | 0.319 | 0.116 | 0.796 | 0.482 | 0.133 | 0.108 | 0.209 | 0.213 | 0.212 | 0.195 | 1.35 | 0.955 | 0.745 | 0.503 | 0.175 |
| ABC-1 | 1.14 | 1.12 | 1.13 | 0.27 | 1.11 | 0.383 | 0.131 | 0.0777 | 1.19 | 0.284 | 0.239 | 0.187 | 1.16 | 0.707 | 1.23 | 0.32 | 0.171 |
| NCI-H1437 | 0.846 | 0.476 | 0.153 | 0.0924 | 0.876 | 0.894 | 0.429 | 0.0993 | 1.14 | 1.07 | 0.712 | 0.187 | 1.04 | 0.831 | 0.861 | 0.421 | 0.184 |
